Laboratory results taken from ChEMBL document CHEMBL1201862, “PubChem BioAssay data set” (2004).
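Following 48 hours of exposure in 96-well plates, responses at five concentrations were used to interpolate endpoints linearly. GI50 is the concentration that inhibits growth by half.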 Calls of active or inactive are those of the source. Cut-off read from the data, not from the text of the source: active = GI50 up to about 1.1 µM and inactive = higher.

Experiments:
Assay in all cases: NCI tumour cell line growth inhibition, 48 h
[1] = test system: ACHN
[2] = test system: CCRF-CEM
[3] = test system: DMS-114
[4] = test system: EKVX
[5] = test system: HCC 2998
[6] = test system: K562
[7] = test system: LXFL 529
[8] = test system: NCI-H226
[9] = test system: NCI-H23
[10] = test system: OVCAR-4
[11] = test system: RPMI-8226
[12] = test system: SK-MEL-28
[13] = test system: SK-MEL-5
[14] = test system: SNB-75
[15] = test system: SW-620
[16] = test system: TK-10
[17] = test system: UO-31

Row | SMILES | GI50 [1] | GI50 [2] | GI50 [3] | GI50 [4] | GI50 [5] | GI50 [6] | GI50 [7] | GI50 [8] | GI50 [9] | GI50 [10] | GI50 [11] | GI50 [12] | GI50 [13] | GI50 [14] | GI50 [15] | GI50 [16] | GI50 [17]
1 | COc1ccc(NC(=O)CC/C(CC(=O)c2ccco2)=N/NC(=O)C(N)=O)cc1 | > 100 µM (inactive) | 63.5 µM (inactive) | 35.2 µM (inactive) | > 100 µM (inactive) | > 100 µM (inactive) | 28.1 µM (inactive) | 65.5 µM (inactive) | > 100 µM (inactive) | 38.3 µM (inactive) | > 100 µM (inactive) | 33.8 µM (inactive) | 91.2 µM (inactive) | 27.4 µM (inactive) | 97.5 µM (inactive) | > 100 µM (inactive) | > 100 µM (inactive) | > 100 µM (inactive)
2 | COc1cc2c(cc1OC)-c1cc(OC)c(OC)cc1[C@H]1CN3CCC[C@@]3(O)C=C21 | < 0.0001 µM (active) | < 0.0001 µM (active) | < 0.0001 µM (active) | < 0.0001 µM (active) | 0.01 µM (active) | < 0.0001 µM (active) | < 0.0001 µM (active) | < 0.0001 µM (active) | < 0.0001 µM (active) | < 0.0001 µM (active) | < 0.0001 µM (active) | < 0.0001 µM (active) | < 0.0001 µM (active) | < 0.0001 µM (active) | < 0.0001 µM (active) | 0.000145 µM (active) | < 0.0001 µM (active)
